{
  "source": "paper PMC6171417",
  "about": "“Carbonic anhydrase inhibition with a series of novel benzenesulfonamide-triazole conjugates” (Journal of Enzyme Inhibition and Medicinal Chemistry, 2018)",
  "experiment_in_all_cases": "cells",
  "set-up_in_all_cases": "species or system NCI human tumour cell line panel; NCI one-dose anti-proliferative screen, human tumour cell line panel, growth inhibition percent (GI%)",
  "key": {"T-47D": {"tested_on": "T-47D", "conditions": "Homo sapiens, T47D; growth inhibition (GI%), single dose", "experimental": "(§1) Ten of the newly synthesised 1,2,3-triazolo benzenesulfonamide derivatives were selected by NCI (Bethesda, MD) for evaluating their anti-proliferative activity. The selected compounds were subjected to a primary in vitro one-dose ([…]) anti-proliferative assay against 57 human tumour cell lines following the previously reported method[30] and their obtained growth inhibition percent (GI%) are presented in Table 2. A subset of ten triazolo-benzenesulfonamides (3, 5, 6, 7, 9, 11, 16–18, and 20) were selected and subjected to an in vitro anti-proliferative screening against a panel of 57 cancer cell lines at NCI at an initial high dose ([…]). The human cell lines used were derived from nine cancer types: leukaemia, lung, colon, CNS, melanoma, ovarian, renal, prostate and breast cancers."}, "SNB-19": {"tested_on": "SNB-19", "conditions": "Homo sapiens, SNB-19; growth inhibition (GI%), single dose", "experimental": "as §1"}, "UO-31": {"tested_on": "UO-31", "conditions": "Homo sapiens, UO-31; growth inhibition (GI%), single dose", "experimental": "as §1"}, "RPMI-8226": {"tested_on": "RPMI-8226", "conditions": "Homo sapiens, RPMI-8226; growth inhibition (GI%), single dose", "experimental": "as §1"}, "MOLT-4": {"tested_on": "MOLT-4", "conditions": "Homo sapiens, MOLT-4; growth inhibition (GI%), single dose", "experimental": "as §1"}, "NCI-H522": {"tested_on": "NCI-H522", "conditions": "Homo sapiens, NCI-H522; growth inhibition (GI%), single dose", "experimental": "as §1"}, "CCRF-CEM": {"tested_on": "CCRF-CEM", "conditions": "Homo sapiens, CCRF-CEM; growth inhibition (GI%), single dose", "experimental": "as §1"}, "U251": {"tested_on": "U251", "conditions": "Homo sapiens, U-251; growth inhibition (GI%), single dose", "experimental": "as §1"}, "LOX IMVI": {"tested_on": "LOX IMVI", "conditions": "Homo sapiens, LOX IMVI; growth inhibition (GI%), single dose", "experimental": "as §1"}, "SNB-75": {"tested_on": "SNB-75", "conditions": "Homo sapiens, SNB-75; growth inhibition (GI%), single dose", "experimental": "as §1"}, "NCI-H23": {"tested_on": "NCI-H23", "conditions": "Homo sapiens, NCI-H23; growth inhibition (GI%), single dose", "experimental": "as §1"}, "UACC-257": {"tested_on": "UACC-257", "conditions": "Homo sapiens, UACC-257; growth inhibition (GI%), single dose", "experimental": "as §1"}, "HCT-116": {"tested_on": "HCT-116", "conditions": "Homo sapiens, HCT-116; growth inhibition (GI%), single dose", "experimental": "as §1"}, "A549/ATCC": {"tested_on": "A549/ATCC", "conditions": "Homo sapiens, A549; growth inhibition (GI%), single dose", "experimental": "as §1"}, "HS 578T": {"tested_on": "HS 578T", "conditions": "Homo sapiens, Hs-578T; growth inhibition (GI%), single dose", "experimental": "as §1"}, "NCI-H322M": {"tested_on": "NCI-H322M", "conditions": "Homo sapiens, NCI-H322M; growth inhibition (GI%), single dose", "experimental": "as §1"}, "HOP-92": {"tested_on": "HOP-92", "conditions": "Homo sapiens, HOP-92; growth inhibition (GI%), single dose", "experimental": "as §1"}, "SN12C": {"tested_on": "SN12C", "conditions": "Homo sapiens, SN12C; growth inhibition (GI%), single dose", "experimental": "as §1"}, "SK-OV-3": {"tested_on": "SK-OV-3", "conditions": "Homo sapiens, SK-OV-3; growth inhibition (GI%), single dose", "experimental": "as §1"}, "HOP-62": {"tested_on": "HOP-62", "conditions": "Homo sapiens, HOP-62; growth inhibition (GI%), single dose", "experimental": "as §1"}},
  "data": [
    {"smiles": "N#Cc1nnn(-c2ccc(S(N)(=O)=O)cc2)c1NCC(=O)c1ccccc1", "note": "[compound 7, 7]", "values": [
      {"measurement": "inhibition at 10 µM", "setting": "T-47D", "result": 4.6, "unit": "%"},
      {"measurement": "inhibition at 10 µM", "setting": "SNB-19", "result": 7.8, "unit": "%"},
      {"measurement": "inhibition at 10 µM", "setting": "UO-31", "result": 21.1, "unit": "%"},
      {"measurement": "inhibition at 10 µM", "setting": "RPMI-8226", "result": 12.5, "unit": "%"},
      {"measurement": "inhibition at 10 µM", "setting": "MOLT-4", "result": 10.2, "unit": "%"},
      {"measurement": "inhibition at 10 µM", "setting": "NCI-H522", "result": 16.1, "unit": "%"},
      {"measurement": "inhibition at 10 µM", "setting": "CCRF-CEM", "result": 16.4, "unit": "%"},
      {"measurement": "inhibition at 10 µM", "setting": "U251", "result": 6.4, "unit": "%"},
      {"measurement": "inhibition at 10 µM", "setting": "LOX IMVI", "result": 5.9, "unit": "%"},
      {"measurement": "inhibition at 10 µM", "setting": "SNB-75", "result": 20.1, "unit": "%"},
      {"measurement": "inhibition at 10 µM", "setting": "NCI-H23", "result": 2.1, "unit": "%"},
      {"measurement": "inhibition at 10 µM", "setting": "UACC-257", "result": 11.7, "unit": "%"},
      {"measurement": "inhibition at 10 µM", "setting": "HCT-116", "result": 5.1, "unit": "%"},
      {"measurement": "inhibition at 10 µM", "setting": "A549/ATCC", "result": 6.7, "unit": "%"},
      {"measurement": "inhibition at 10 µM", "setting": "HS 578T", "result": 1.7, "unit": "%"},
      {"measurement": "inhibition at 10 µM", "setting": "NCI-H322M", "result": 8.8, "unit": "%"},
      {"measurement": "inhibition at 10 µM", "setting": "HOP-92", "result": 13.5, "unit": "%"},
      {"measurement": "inhibition at 10 µM", "setting": "SN12C", "result": 2.9, "unit": "%"},
      {"measurement": "inhibition at 10 µM", "setting": "SK-OV-3", "result": 8.2, "unit": "%"},
      {"measurement": "inhibition at 10 µM", "setting": "HOP-62", "result": 8.3, "unit": "%"}
    ]}
  ]
}
